Measurements as given in ChEMBL document CHEMBL1149774, “Synthesis of N-(5,7-diamino-3-phenyl-quinoxalin-2-yl)-3,4,5-substituted anilines and N-[4[(5,7-diamino-3-phenylquinoxalin-2-yl)amino]benzoyl]-l-glutamic acid diethyl ester: evaluation of in vitro anti-cancer and anti-folate activities” (Eur J Med Chem, 2008).
Active and inactive are the calls of the source. The rule behind the calls is not given here.

Columns and labels:
Thymidylate synthase [1] = target: T1, Thymidylate synthase (Homo sapiens, UniProt P04818); test: Inhibition of human thymidylate synthase at 10 uM
Target sequence in this assay (P04818 2-313 limits assumed): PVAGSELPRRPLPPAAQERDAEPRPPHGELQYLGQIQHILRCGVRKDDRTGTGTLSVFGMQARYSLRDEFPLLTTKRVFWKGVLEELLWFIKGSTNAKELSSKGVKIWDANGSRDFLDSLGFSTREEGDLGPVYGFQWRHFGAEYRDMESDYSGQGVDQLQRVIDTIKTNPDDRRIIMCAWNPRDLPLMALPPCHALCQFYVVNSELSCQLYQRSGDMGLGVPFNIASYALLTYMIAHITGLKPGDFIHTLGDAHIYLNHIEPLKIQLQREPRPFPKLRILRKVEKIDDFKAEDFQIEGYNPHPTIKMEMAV

SF-539 = test: Growth inhibition of human SF539 cells after 48 hrs by SRB staining method; assay type: functional; details: SF-539, 48 h; for TGI: read-out: pTGI (converted)
Thymidylate synthase [2] = target: Thymidylate synthase (Escherichia coli, UniProt C3SWJ7)
Sequence of Thymidylate synthase (Escherichia coli, UniProt C3SWJ7) (C3SWJ7 whole entry): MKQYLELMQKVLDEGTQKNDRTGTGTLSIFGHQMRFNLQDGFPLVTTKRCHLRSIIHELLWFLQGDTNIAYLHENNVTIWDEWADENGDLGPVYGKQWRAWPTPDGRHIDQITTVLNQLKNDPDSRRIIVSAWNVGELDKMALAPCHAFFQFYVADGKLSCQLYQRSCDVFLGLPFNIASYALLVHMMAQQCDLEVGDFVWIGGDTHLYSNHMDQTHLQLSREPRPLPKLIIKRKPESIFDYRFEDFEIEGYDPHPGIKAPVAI

Thymidylate synthase [3] = target: T1, Thymidylate synthase
Target sequence in this assay (P04818 whole entry): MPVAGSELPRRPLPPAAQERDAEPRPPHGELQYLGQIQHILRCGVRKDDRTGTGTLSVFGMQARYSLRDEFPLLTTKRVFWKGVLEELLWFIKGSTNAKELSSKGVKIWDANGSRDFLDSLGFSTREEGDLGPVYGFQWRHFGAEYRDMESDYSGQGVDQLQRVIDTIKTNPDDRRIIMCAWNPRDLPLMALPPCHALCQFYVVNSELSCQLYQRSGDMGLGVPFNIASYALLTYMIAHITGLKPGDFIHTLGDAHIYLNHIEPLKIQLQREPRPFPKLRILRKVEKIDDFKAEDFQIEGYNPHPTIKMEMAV

[4] = target: Thymidylate synthase (Escherichia coli) (UniProt C3SWJ7); test: Inhibition of Escherichia coli thymidylate synthase at 10 uM
Sequence of Thymidylate synthase (Escherichia coli) (C3SWJ7 1-264): as the sequence (C3SWJ7 whole entry) above

## Nc1cc(N)c2nc(-c3ccccc3)c(Nc3ccc(F)cc3)nc2c1
Thymidylate synthase [1]
  Activity: inactive
SF-539
  GI50: 11 µM
  TGI: 24.5 µM
Thymidylate synthase [2]
  Ki: 70 µM

## COc1cc(Nc2nc3cc(N)cc(N)c3nc2-c2ccccc2)cc(OC)c1
Thymidylate synthase [3]
  Ki: 25 µM

## COc1ccc(Nc2nc3cc(N)cc(N)c3nc2-c2ccccc2)cc1
Thymidylate synthase [3]
  Ki: 6 µM

## COc1ccc(Nc2nc3cc(N)cc(N)c3nc2-c2ccccc2)cc1OC
Thymidylate synthase [1]
  Activity: inactive
[4]
  Activity: inactive
SF-539
  GI50: 16.2 µM
  LC50: 87.1 µM
  TGI: 37.2 µM

## Nc1cc(N)c2nc(-c3ccccc3)c(Nc3ccc(Cl)c(Cl)c3)nc2c1
Thymidylate synthase [3]
  Ki: 0.9 µM
SF-539
  GI50: 17 µM
  LC50: 72.4 µM
  TGI: 35.5 µM
Thymidylate synthase [2]
  Ki: 3 µM

## COc1cc(Nc2nc3cc(N)cc(N)c3nc2-c2ccccc2)cc(OC)c1OC
Thymidylate synthase [3]
  Ki: 51 µM
SF-539
  GI50: 14.8 µM
  LC50: 56.2 µM
  TGI: 28.8 µM

## CCOC(=O)CCC(NC(=O)c1ccc(Nc2nc3cc(N)cc(N)c3nc2-c2ccccc2)cc1)C(=O)OCC (stereo not given)
[4]
  Activity: inactive
Thymidylate synthase [3]
  Ki: 34 µM
SF-539
  GI50: 27.5 µM
  LC50: > 100 µM
  TGI: > 100 µM
